Tested on: U2OS cells expressing HaloTag fusion proteins
Experiment: Live-cell labeling of HaloTag fusions at different subcellular locations, Airyscan microscopy
Type: cell-based
Settings: 100 nM, 1 h
Experimental: Fig. 4. Evaluation of live-cell labeling of biotin–rhodamine–HaloTag ligands 13HTL–16HTL. Airyscan fluorescence microscopy images of U2OS cells expressing HaloTag fusion proteins at different subcellular locations, incubated with 100 nM 13HTL–16HTL for 1 h followed by fixation, counterstaining with Hoechst 33342 (gray) and imaging. Columns indicate different HaloTag fusion proteins: (A–D) Cell-surface-localized HaloTag–PDGFR; (E–H) Outer mitochondrial membrane-localized HaloTag–TOMM20; (I–L) Endoplasmic reticulum membrane-localized HaloTag–Sec61β; (M–P) Nucleus-localized HaloTag–histone H2B. Rows indicate different ligands: (A,E,I, and M) biotin–JF549–HaloTag ligand (13HTL; yellow); (B, F, J, and N) biotin–JF608–HaloTag ligand (14HTL; red); (C, G, K, and O) biotin–JF646–HaloTag ligand (15HTL; magenta); (D, H, L, and P) biotin–JF635–HaloTag ligand (16HTL; magenta). […]
indicated in the product information12 and from a previous publication.13 For labeling with biotin-JF-HaloTag ligands 13HTL–16HTL, cells were incubated with 100 nM or 1 µM ligand for 0.5–2 h at 37 °C. […] For quantitation of labeling intensity, ROIs were drawn surrounding individual HEK cells, and the average fluorescence ratio (JF/msGFP) from multiple cells in each condition was measured; no background subtraction was necessary.
U2OS cell culture, labeling, and fluorescence microscopy. […]

Question: `O=C(CCCCC1SCC2NC(=O)NC21)NCCOCCOCCNC(=O)C1C[N+](=c2ccc3c(-c4cc(C(=O)NCCOCCOCCCCCCCl)ccc4C(=O)[O-])c4ccc(N5CCC5)cc4oc-3c2)C1` (stereo not shown) [13HTL, biotin–JF549–HaloTag ligand] was tested. Which “labeling of HaloTag fusions (PDGFR, TOMM20, Sec61β, histone H2B)” value did it give?
Answer: low intracellular signals, only labeling the cell-surface-localized PDGFR–HaloTag fusion
